Measurements taken from patent US20110229892A1, “METHOD FOR PREDICTING A PATIENT'S RESPONSIVENESS TO ANTI-FOLATE THERAPY” (priority 2008, published 2011).
Where two headings read alike, the source gives them in different places.

Experiments:
CEM-MTX^R5P cells = assay: Antifolate growth inhibition assay (XTT), MTX-resistant subline; assay type: cell-based, human; settings: for IC50: Homo sapiens, 72 h, read-out: IC50 growth inhibition
Method: (§1) Tissue Culture: The human T-cell lymphocytic leukemia lines CCRF-CEM and Molt-4 as well as their antifolate-resistant sublines CEM-MTX^R5P, CEM-MTX^R10, CEM-7OH MTX and Molt-4-7OH MTX were maintained in RPMI-1640 medium (GIBCO) containing 2.3 μM folic acid supplemented with 10% fetal bovine serum, 2 mM glutamine, 100 units/ml penicillin G and 100 μg/ml streptomycin sulfate (Biological Industries, Beth-Haemek, Israel). The MTX-resistant sublines MTX^R5P and MTX^R10 were established by exposure of parental CCRF-CEM cells to 6 cycles each of 24 hr pulse of 5 or 10 μM MTX, respectively (Sigma) as follows: after an initial 24 hr pulse exposure of parental CCRF-CEM cells to 5 or 10 μM MTX at 37° C., cells were washed once with drug-free growth medium, adjusted to 3×10^5 cells/ml and allowed to grow for 1-2 weeks. Thereafter, a maintenance treatment of 24 hr pulses of MTX was performed once a month. CEM-7OH MTX and Molt-4-7OH MTX were established and maintained as previously described [Fotoohi K, et al., Blood. 2004; 104:4194-4201].
(§2) Antifolate growth inhibition assay: Parental cells and their antifolate-resistant sublines as well as FPGS-transfected cells were first grown in antifolate-free growth medium for 5-7 cell doublings. Thereafter, cells were seeded in 96-well plates (3×10^4/well) in growth medium (100 μl/well) containing various concentrations of the different antifolates (e.g. MTX, ZD1694 and ZD9331). After 3 days of incubation at 37° C., viable cell numbers were determined using the Cell Proliferation Kit (XTT) (Biological Industries). Percent inhibition of cell growth was calculated relative to untreated controls. Results presented are means of at least three independent experiments.

RFC (SLC19A1) = molecular target: T1, RFC (SLC19A1) (Homo sapiens, UniProt P41440); assay: [^3H]MTX transport assay; assay type: cell-based; settings: 2 μM [3H]MTX, 3 min, 37° C.
T1 construct: endogenous in cells; host or cells: CCRF-CEM parental cells and antifolate-resistant sublines (MTX^R5P, CEM/MTX^R10)
T1 sequence (P41440 1-591): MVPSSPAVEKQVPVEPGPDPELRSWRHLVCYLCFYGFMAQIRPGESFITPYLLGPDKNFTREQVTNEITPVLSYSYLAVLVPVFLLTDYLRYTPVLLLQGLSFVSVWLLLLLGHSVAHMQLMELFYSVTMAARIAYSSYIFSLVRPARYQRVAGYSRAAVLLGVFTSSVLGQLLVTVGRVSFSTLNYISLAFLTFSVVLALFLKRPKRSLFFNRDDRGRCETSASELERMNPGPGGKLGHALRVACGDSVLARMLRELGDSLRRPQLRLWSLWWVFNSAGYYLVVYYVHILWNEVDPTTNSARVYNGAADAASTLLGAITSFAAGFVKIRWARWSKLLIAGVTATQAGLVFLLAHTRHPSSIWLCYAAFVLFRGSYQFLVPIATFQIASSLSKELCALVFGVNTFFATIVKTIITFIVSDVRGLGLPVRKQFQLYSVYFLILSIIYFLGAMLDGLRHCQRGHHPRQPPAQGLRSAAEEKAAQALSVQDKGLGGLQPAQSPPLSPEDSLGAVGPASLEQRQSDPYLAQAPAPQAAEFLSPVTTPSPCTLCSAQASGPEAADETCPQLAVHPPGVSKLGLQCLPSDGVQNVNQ
Method: [^3H]MTX transport assay: [^3H]MTX influx rates were determined as previously described [Jansen Get al., J Biol Chem. 1990; 265:18272-18277]. Briefly, cells (2×10^7) were washed with ice-cold HBS (20 mM HEPES, 140 mM NaCl, 5 mM KCl, 2 mM MgCl2, and 5 mM glucose, at pH 7.4) and incubated at 37° C. for 3 min in HBS containing 2 μM [3′,5′,7-^3H]-Methotrexate (0.555 TBq/mmol; […]; Moravek Biochemicals, Brea, Calif.). Transport controls contained a 500-fold excess (1 mM) of unlabeled MTX. Transport was stopped by the addition of 10 ml of ice-cold HBS. Then, the cell suspension was centrifuged, washed with ice-cold HBS and suspended in water for scintillation counting.

CEM-MTX^R10 cells = assay: Antifolate growth inhibition assay (XTT), MTX-resistant subline; assay type: cell-based; settings: Homo sapiens, 72 h, read-out: IC50 growth inhibition
Method: as §1, §2

CCRF-CEM WT cells = assay: Antifolate growth inhibition assay (XTT), parental cells; assay type: cell-based; settings: Homo sapiens, 72 h, read-out: IC50 growth inhibition
Method: as §1, §2

[1] = test system: MTX^R10 cells overexpressing normal FPGS (pcDNA3/hFPGS transfectant); assay: Antifolate cytotoxicity in FPGS-transfected cells; assay type: cell-based, human; settings: MTX^R10 cells transfected with normal FPGS, compared with parental cells
Method: as §2
Expression Vectors: pcDNA3/hFPGS harboring the full-length human FPGS cDNA was provided. […]
Stable Transfections with hFPGS Expression Constructs: Exponentially growing cells (i.e. CCRF-CEM and)CEM-MTX^R10) were harvested by centrifugation and stably transfected by electroporation (1000 μF, 234V) with 10 μg of the vectors pcDNA3.1, pIRES2-EGFP, pcDNA3/hFPGS or pIRES/FPGSΔexon10. […] Stable transfectants obtained after 4 weeks of G-418 selection were analyzed for FPGS mRNA levels by Northern blots as detailed below and used for further analyses.

[2] = CEM-MTX^R5P, 3 days incubation, XTT
[3] = CEM-MTX^R10, 3 days incubation, XTT
[4] = CCRF-CEM WT, 3 days incubation, XTT
[5] = MTX^R5P cells vs parental cells

Row | MTX Influx (RFC (SLC19A1); CCRF-CEM WT (parental reference)) | MTX Influx (RFC (SLC19A1); CEM-MTX^R5P, relative to parental cells) | MTX Influx (RFC (SLC19A1); CEM-MTX^R5P, relative to parental cells, listed as [^3H]MTX) | MTX Influx (RFC (SLC19A1); CEM-MTX^R10, relative to parental cells) | SMILES | IC50 (CEM-MTX^R5P cells; [2]) | IC50 (CEM-MTX^R10 cells; [3]) | IC50 (CCRF-CEM WT cells; [4]) | resistance relative to parental CCRF-CEM cells (CEM-MTX^R5P cells; [5]) | sensitivity after ectopic overexpression of normal FPGS [1] | IC50 (CEM-MTX^R5P cells) | increased sensitivity relative to parental cells (CEM-MTX^R5P cells; [5]) | IC50 (CEM-MTX^R10 cells) | IC50 (CCRF-CEM WT cells; CCRF-CEM)
1 | 100% | 50 ± 5% | 50% | 91 + 6% | CN(Cc1cnc2nc(N)nc(N)c2n1)c1ccc(C(=O)N[C@@H](CCC(=O)O)C(=O)O)cc1 [MTX, methotrexate] | 23.1 ± 2 nM | 28.2 ± 2.9 nM | 25.7 ± 2.1 nM | – | – | – | – | – | –
2 | – | – | – | – | Cc1nc2ccc(CN(C)c3ccc(C(=O)N[C@@H](CCC(=O)O)C(=O)O)s3)cc2c(=O)[nH]1 [ZD1964, raltitrexed] | > 300000 nM | 110 ± 9.8 nM | 6.06 ± 0.42 nM | 50,000 fold | fully restored parental cell sensitivity | – | – | – | –
3 | – | – | – | – | C#CCN(Cc1cc2c(=O)[nH]c(C)nc2cc1C)c1ccc(C(=O)N[C@@H](CCc2nnn[nH]2)C(=O)O)c(F)c1 [ZD9331, plevitrexed] | – | – | – | – | – | 13.9 ± 1.7 nM | 2 fold | 40.8 ± 4.1 nM | 28.6 ± 2.3 nM
